Assay results from ChEMBL document CHEMBL3871304, “Novel benzothiazine-piperazine derivatives by peptide-coupling as potential anti-proliferative agents” (2017).

What was measured:
Assay type in all cases: functional
[1] = Growth inhibition of human HeLa cells after 48 hrs by SRB assay
[2] = Growth inhibition of human MiaPaCa cells after 48 hrs by SRB assay; conditions: MIA PaCa-2, 48 h
[3] = Growth inhibition of human MDA-MB-231 cells after 48 hrs by SRB assay; conditions: MDA-MB-231, 48 h
[4] = Growth inhibition of human IMR32 cells after 48 hrs by SRB assay; conditions: IMR-32, 48 h

Structure (SMILES) | GI50 ([1]; read-out: GI50) | GI50 ([1]; read-out: pGI50 (converted)) | GI50 [2] | GI50 [3] | GI50 [4]
O=C(CCN1C(=O)CSc2ccccc21)N1CCN(c2ccc(C(F)(F)F)cc2)CC1 | 4.2 µM | 4.17 µM | > 100 µM | 1 µM | 46400 nM
O=C(CCN1C(=O)CSc2ccccc21)NCCCN1CCN(c2ccccc2F)CC1 | 1.4 µM | 1.41 µM | > 100 µM | 4.6 µM | 1400 nM
O=C(CCN1C(=O)CSc2ccccc21)N1CCN(c2ccc([N+](=O)[O-])cc2)CC1 | 8.4 µM | 8.32 µM | 68.1 µM | 5.6 µM | 340 nM
CC(C)(C)OC(=O)N1CCN(C(=O)CCN2C(=O)CSc3ccccc32)CC1 | > 100 µM | 100 µM | 51.5 µM | > 100 µM | > 100000 nM
O=C(CCN1C(=O)CSc2ccccc21)N1CCN(c2ccccc2F)CC1 | 61 µM | 61.7 µM | > 100 µM | 1.6 µM | > 100000 nM
O=C(CCN1C(=O)CSc2ccccc21)N1CCN(c2ccc(F)cc2)CC1 | 5.4 µM | 5.37 µM | > 100 µM | 2.2 µM | 10000 nM
CC(=O)O[C@H]1C(=O)[C@@]2(C)[C@H]([C@H](OC(=O)c3ccccc3)[C@]3(O)C[C@H](OC(=O)[C@H](O)[C@@H](NC(=O)c4ccccc4)c4ccccc4)C(C)=C1C3(C)C)[C@]1(OC(C)=O)CO[C@@H]1C[C@@H]2O [PACLITAXEL] | 0.039 µM | 0.0389 µM | 0.06 µM | 0.092 µM | 86 nM
O=C(CCN1C(=O)CSc2ccccc21)N1CCSCC1 | 18.5 µM | 18.6 µM | > 100 µM | 6 µM | 21700 nM
O=C(CCN1C(=O)CSc2ccccc21)NCCCN1CCN(c2ccc([N+](=O)[O-])cc2)CC1 | > 100 µM | 100 µM | > 100 µM | > 100 µM | 460 nM
O=C(CCN1C(=O)CSc2ccccc21)NCCCN1CCSCC1 | 0.12 µM | 0.12 µM | 83.3 µM | 0.63 µM | 820 nM
O=C(CCN1C(=O)CSc2ccccc21)NCCCN1CCC(Cc2ccccc2)CC1 | 56.2 µM | 56.2 µM | > 100 µM | 27.6 µM | 1500 nM
O=C(CCN1C(=O)CSc2ccccc21)NCCCN1CCN(c2ccccc2)CC1 | 2.17 µM | 2.19 µM | > 100 µM | < 0.01 µM | > 100000 nM
O=C(CCN1C(=O)CSc2ccccc21)N1CCC(Cc2ccccc2)CC1 | 17.7 µM | 17.8 µM | 56.8 µM | 3.8 µM | 100 nM
O=C(CCN1C(=O)CSc2ccccc21)NCCCN1CCN(c2ccc(C(F)(F)F)cc2)CC1 | 5.7 µM | 5.75 µM | > 100 µM | 20.4 µM | 1400 nM
COc1cccc2c1C(=O)c1c(O)c3c(c(O)c1C2=O)C[C@@](O)(C(=O)CO)C[C@@H]3O[C@H]1C[C@H](N)[C@H](O)[C@H](C)O1 [DOXORUBICIN] | 0.083 µM | 0.0832 µM | 0.095 µM | 0.073 µM | 25 nM
COc1ccccc1N1CCN(CCCNC(=O)CCN2C(=O)CSc3ccccc32)CC1 | 0.97 µM | 0.977 µM | 59.2 µM | 2 µM | > 100000 nM
O=C(CCN1C(=O)CSc2ccccc21)N1CCN(c2ccccc2)CC1 | 41.9 µM | 41.7 µM | > 100 µM | 5.4 µM | < 10 nM
COc1ccccc1N1CCN(C(=O)CCN2C(=O)CSc3ccccc32)CC1 | 11.9 µM | 12 µM | 34.9 µM | 6.6 µM | > 100000 nM
